This is an account of results in US4758586A, “Indolyl compounds and hyposensitivity use thereof” (USV Pharmaceutical Corp., priority 1986, dated 1988).

For assay [1], the system named is leukotriene C4 -induced contraction of guinea pig peripheral strips. The experiment in a line: SRS-A antagonists (SALTI): leukotriene C4-induced contraction of guinea pig peripheral lung strips. As to conditions: Cavia porcellus; 0.2 μM leukotriene C4-induced contraction; read-out: SALTI, I50 μM. How it is done: Protocol for SRS-A (Slow-reacting Substance of Anaphylaxis Antagonists (SALTI)
Peripheral strips of guinea pig lungs are prepared and hung in tissue baths (Metro #ME-5505, 10 ml) according to the published procedure (Pro. Nat'l. Acad. Sci., U.S.A. Volume 77, pp. 4354-4358, 1980). The strips are thoroughly rinsed in Assay Buffer and then connected with surgical silk thread to the support rods from the tissue baths. The rods are adjusted in the baths and the strips connected to the pressure transducers (Grass FT 103 or Gould UC-3). The tissue baths are aerated with 95% oxygen 5% carbon dioxide and maintained at 37° C. The Assay Buffer has been made as follows: For each liter of buffer the following are added to approximately 800 ml of water distilled in glass--6.87 g. NaCl, 0.4 g. KCl, […]. NaHCO3, 0.14 g. NaH2 PO4.H2 O, 0.21 g. MgSO4.7H2 O, and 2.0 g. D-glucose. Then a solution of 0.368 g. CaCl2.2H2 O in 100 ml glass-distilled water is slowly added to the buffer. Sufficient water is added to adjust the volume to one liter, and the solution is aerated with 95% oxygen--5% carbon dioxide. Usually 10 liters of buffer are used for an experiment with 4 tissues.
After the tissues have been repeatedly washed and allowed to equilibrate in the tissue bath, they are challenged with 1 μM histamine. After maximum contractions have been obtained, the tissues are washed, and allowed to relax back to baseline tension. This histamine challenge procedure is repeated at least 1 to 2 more times to obtain a repeatable control response. The average response to 1 μM histamine for each tissue is used to normalize all other challenges.
Responses of each tissue to a predetermined concentration of leukotriene are then obtained. Usually test compounds are examined initially at 30 μM on resting tension of the tissues without any added agonist or antagonist to determine if the compound has any possible intrinsic activity. The tissues are washed, and the test compound is added again. Leukotriene is added after the desired pre-incubation time. The intrinsic activity of the compounds, and their effect on leukotriene-induced contractions are then recorded.
The concentration required for 50% inhibition of 0.2 μM leukotriene C4 -induced contraction of guinea pig peripheral strips for representative compounds of the present invention is shown in Table 3.

For another assay, the target named is cyclooxygenase. Kind of assay: Production of TXB2 and PGF2 α in rat peritoneal leukocyte homogenate (cyclooxygenase). The assay is classed as biochemical. As to conditions: read-out: Cyclox, I50. From the text: Another assay has been developed to test the ability of the invented compounds on the activity of cyclooxygenase, which is one of the enzymes metabolizing arachidonic acids. By-products of arachidonic acid metabolism include thromboxanes, a type of which is designated as TXB2, and protoglandins, a class of which is known as PGF2 α. As indicated, supra, these by-products promote inflammatory response to a host of offending stimuli. The following protocol describes a procedure for testing the inhibitory effect on the production of TXB2 and PGF2 α.
Protocol for Detecting the Production of TXB2 and PGF2 α.
A suspension of glycogen elicited rat peritoneal leukocyte-homogenate in buffer is incubated with (^14 C)-arachidonic acid (AA), epinephrine and glutathione for 30 minutes at 37°. The reaction is quenched with 2M citric acid, and a trace amount of (^3 H)-TXB2 and an excess of unlabeled TXB2 and PGF2 α are added to each tube. […] Strips containing the spots are cut out, placed in scintillation vials and the radioactive content is quantitated in a liquid scintillation spectrometer.
After adjusting for the extraction efficiency, the amount (pmole) of (^14 C)-TXB2 and PGF2 α in each of the tubes is calculated. […] The ability of the test compounds to modulate the activity of this enzyme is determined by a decrease or increase in the net amount of TXB2 and PGF2 α produced.

With `CCC(=CC=Cc1cn(Cc2ccccc2)c2ccccc12)C(=O)O` [Example 9, 5-(1-Benzylindol-3-yl)-2-Ethyl-2,4-Pentadienoic Acid], the IC50 in assay [1] turned out to be 18 µM; on cyclooxygenase, 15 µM.
